We go through 23 molecules from patent US4735955A, “2-substituted cycloheptoimidazole derivatives and anti-ulcerative agents containing the same” (Kotobuki Seiyaku Co., Ltd., priority 1985, dated 1988).

Test [1] deals with gastric-acid secretion. Nature of the test: Gastric acid antisecretory activity, pylorus-ligated rat (method of Shay). It is filed as in vivo. The note with it: intraduodenal, 50 mg/kg intraduodenally just after pylorus ligation, 4 hours after ligation, read-out: Total Acid Inhibition. The procedure: Gastric acid antisecretory activities
Inhibitory activities of gastric-acid secretion are determined by the method of Shay (Gastroenterology 26, 906). Rats are fasted for 24 hours and pylorus ligation is carried out under light anesthesia.
Drug is given intraduodenally just after the ligation. Four hours after ligation, the stomach of the rat is removed and the acidity of gastric juice is determined.

Test [2] in a line: Cytoprotective activity, inhibition of ethanol-induced ulcer (method of Robert). It is filed as in vivo. Particulars: rat, 100 mg/kg perorally 30 minutes before 1 ml absolute ethanol, stomach removed one hour after ethanol. The procedure:
Cytoprotective Activities
Inhibitory activities of ethanol-induced ulcer are determined by the method of Robert (Gastroenterology 77, 433~443). Rats are fasted for 24 hours and are given 1 ml of absolute ethanol perorally. One hour after administration of ethanol, the stomach of the rat is removed. The length of each ulcer occurring in the grandulor stomach is determined and each ulcer in one rat is accounted as the ulcer-index. The test compounds are given perorally 30 minutes before absolute ethanol administration.

For test [3], the target named is T1, (H^+,K^+)ATPase (Sus scrofa, UniProt P19156).
T1 construct: (H^+,K^+)ATPase is prepared from the pig gastric mucosa; from tissue; host or cells: pig gastric mucosa
T1 sequence (P19156 2-1034 limits assumed): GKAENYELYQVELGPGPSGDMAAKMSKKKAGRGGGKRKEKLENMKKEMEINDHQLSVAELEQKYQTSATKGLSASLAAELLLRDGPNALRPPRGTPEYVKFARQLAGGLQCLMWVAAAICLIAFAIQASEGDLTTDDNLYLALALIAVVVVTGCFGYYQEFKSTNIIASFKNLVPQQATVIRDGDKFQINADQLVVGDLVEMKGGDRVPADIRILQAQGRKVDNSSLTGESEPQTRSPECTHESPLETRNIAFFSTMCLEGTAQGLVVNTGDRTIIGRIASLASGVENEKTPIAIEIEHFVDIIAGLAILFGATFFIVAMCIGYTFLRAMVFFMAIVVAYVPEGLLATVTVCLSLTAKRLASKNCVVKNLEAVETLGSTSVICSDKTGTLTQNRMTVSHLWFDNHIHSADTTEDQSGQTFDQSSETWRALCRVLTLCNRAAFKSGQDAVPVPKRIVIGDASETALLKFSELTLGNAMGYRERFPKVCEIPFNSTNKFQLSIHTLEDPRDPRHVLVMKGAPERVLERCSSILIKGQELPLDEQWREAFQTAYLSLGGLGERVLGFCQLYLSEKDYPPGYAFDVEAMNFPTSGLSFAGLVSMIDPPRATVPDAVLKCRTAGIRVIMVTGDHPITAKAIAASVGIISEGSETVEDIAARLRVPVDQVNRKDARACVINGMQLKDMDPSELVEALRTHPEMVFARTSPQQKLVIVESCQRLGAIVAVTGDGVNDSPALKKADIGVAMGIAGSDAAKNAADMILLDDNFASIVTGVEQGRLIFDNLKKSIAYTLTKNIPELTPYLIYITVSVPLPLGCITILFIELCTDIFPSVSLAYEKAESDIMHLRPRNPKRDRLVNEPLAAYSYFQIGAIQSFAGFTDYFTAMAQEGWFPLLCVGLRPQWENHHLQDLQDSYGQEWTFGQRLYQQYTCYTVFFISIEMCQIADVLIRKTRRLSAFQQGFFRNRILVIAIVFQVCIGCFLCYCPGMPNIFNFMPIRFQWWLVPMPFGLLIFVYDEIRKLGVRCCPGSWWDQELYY
T1 sequence (P18434 whole entry partner): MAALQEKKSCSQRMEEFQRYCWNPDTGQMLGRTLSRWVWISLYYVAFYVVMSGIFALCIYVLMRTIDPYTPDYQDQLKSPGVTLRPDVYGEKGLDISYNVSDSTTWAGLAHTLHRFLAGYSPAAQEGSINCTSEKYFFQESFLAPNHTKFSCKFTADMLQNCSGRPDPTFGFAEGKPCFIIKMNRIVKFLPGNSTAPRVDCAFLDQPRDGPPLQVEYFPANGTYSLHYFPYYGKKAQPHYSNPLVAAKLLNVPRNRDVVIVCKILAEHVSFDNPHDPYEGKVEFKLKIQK
The test can be described thus: Inhibition of (H^+,K^+)ATPase activity (method of Fellenius). It is filed as biochemical. Particulars: 3 × 10^-4 M, pig gastric mucosa, pH 7.4, 37° C. The procedure: Inhibition of (H^+,K^+)ATPase activities. Inhibition of (H^+,K^+) ATPase activities is determined by the method of F. Fellenius et al., Nature 290, pp. 159~161, 1981. (H^+,K^+)ATPase is prepared from the pig gastric mucosa and the test compound is incubated with […], 40 mM of tris-buffer (pH 7.4), 2 mM of MgCl2 and 10 mM of KCl at 37° C. Inorganic phosphate occurring by stimulation of ATPase is determined.

As usually defined, the inhibition is the change of the read-out against control, counted positive when it falls. Lower therefore signals a response near the control.

`CC(C)c1ccc2nc(SCc3ccccn3)nc-2cc1` [Compound 1, 2-(2-Pyridyl)methylthio-6-isopropyl-cycloheptoimidazole]: in test [1], the inhibition in vivo at 50 mg/kg is 80.5%. The same measure, in the same setting: for `c1ccc2nc(SCCn3cnc4ccccc43)nc-2cc1` [Compound 3, 2-(1-Benzimidazolyl)ethylthio-cycloheptoimidazole] the value was 22.4%; for `CSc1nnc(CSc2nc3cccccc-3n2)s1` [Compound 8, 2-(2-Methylthio-1,3,4-thiadiazole-5-yl)methylthio-cycloheptoimidazole], 20.6%.

For `c1ccc2nc(SCc3cccnc3)nc-2cc1` [Compound 9, 2-(3-Pyridyl)methylthio-cycloheptoimidazole], the “Inhibition of ethanol-induced ulcer” value in test [2] was found to be 83.1%. `c1ccc2nc(SCc3ccn[nH]3)nc-2cc1` [Compound 10, 2-(5-Pyrazolyl)methylthio-cycloheptoimidazole]: in test [1], the inhibition in vivo at 50 mg/kg is 54.4%. For `c1ccc2nc(SCc3ccncc3)nc-2cc1` [Compound 12, 2-(4-Pyridyl)methylthio-cycloheptoimidazole], in test [1], the inhibition in vivo at 50 mg/kg worked out at 66.8%. Take `c1ccc2nc(SCc3c[nH]cn3)nc-2cc1` [Compound 13, 2-(4-imidazolyl)methylthio-cycloheptoimidazole]: the inhibition in vivo at 50 mg/kg in test [1] was found to be 66.5%. The “Inhibition of ethanol-induced ulcer” value in test [2] is recorded as 88.1%. Consider `Nc1nc(CSc2nc3cccccc-3n2)cs1` [Compound 14, 2-(2-Aminothiazole-4-yl)methylthio-cycloheptoimidazole], for which, in test [2], the “Inhibition of ethanol-induced ulcer” value is recorded as 90.3%.

As to `CC(C)c1ccc2nc(SCc3csc(N)n3)nc-2cc1` [Compound 15, 2-(2-Aminothiazole-4-yl)methylthio-6-isopropyl-cycloheptoimidazole], in test [1], the inhibition in vivo at 50 mg/kg is 21%. Further, the “Inhibition of ethanol-induced ulcer” value in test [2] was 90.0%. With `COc1ccc(CSc2nc3cccccc-3n2)cc1` [Compound 26, 2-(p-Methoxyphenyl)methylthio-cycloheptoimidazole], the inhibition in vivo at 50 mg/kg in test [1] was 81.6%. Same read-out and setting: for `Clc1ccc(CSc2nc3cccccc-3n2)cc1` [Compound 28, 2-(p-Chlorophenyl)methylthio-cycloheptoimidazole] the value was 39.1%; for `Nc1cccc(CSc2nc3cccccc-3n2)c1` [Compound 30, 2-(m-Aminophenyl)methylthio-cycloheptoimidazole], 52.5%. On the same count and under the same terms, the same measure for `c1ccc(CSc2nc3cccccc-3n2)cc1` [Compound 31, 2-(Phenyl)methylthio-cycloheptoimidazole]: 78.9%; for `Cc1oncc1CSc1nc2cccccc-2n1` [Compound 34, 2-(5-Methylisoxazole-4-yl)methylthio-cycloheptoimidazole]: 70.1%.

On to `Cc1nc(-c2ccccc2)c(CSc2nc3cccccc-3n2)o1` [Compound 37, 2-(2-Methyl-4-Phenyloxazole-5-yl)methylthio-cycloheptoimidazole], for which the inhibition at 300 µM in test [3] came out at 48%. `COc1ccc(C[S+]([O-])c2nc3cccccc-3n2)c(OC)c1OC` (centres unmarked) [Compound 44, 2-(2,3,4-Trimethoxyphenyl)methylthio-cycloheptoimidazole-S-oxide]: testing at 300 µM in test [3] gave an inhibition of 25%. For the same molecule, in test [1], the inhibition in vivo at 50 mg/kg stood at 89.8%. On to `Cc1ccc(C[S+]([O-])c2nc3cccccc-3n2)cc1` (centres unmarked) [Compound 45, 2-(p-Tolyl)methylthio-cycloheptoimidazole-S-oxide], for which the inhibition in vivo at 50 mg/kg in test [1] was 90.7%. On to `COc1ccc(C[S+]([O-])c2nc3cccccc-3n2)cc1` (centres unmarked) [Compound 47, 2-(p-Methoxyphenyl)methylthio-cycloheptoimidazole-S-oxide], for which, in test [3], the inhibition at 300 µM was 32%. For the same molecule, in test [1], the inhibition in vivo at 50 mg/kg came out at 90.7%.

Turning to `CN(C)c1ccc(C[S+]([O-])c2nc3cccccc-3n2)cc1` (centres unmarked) [Compound 49, 2-(p-Dimethylaminophenyl)methylthio-cycloheptoimidazole-S-oxide], the inhibition in vivo at 50 mg/kg in test [1] came to 33.6%. The same measure, in the same setting: the same measure for `[O-][S+](Cc1c[nH]cn1)c1nc2cccccc-2n1` (centres unmarked) [Compound 51, 2-(4-imidazolyl)methylthio-cycloheptoimidazole-S-oxide]: 63.6%; for `Cc1cc(C[S+]([O-])c2nc3cccccc-3n2)on1` (centres unmarked) [Compound 52, 2-(3-Methylisoxazole-5-yl)methylthio-cycloheptoimidazole-S-oxide]: 96.9%. With `Cc1noc(C)c1C[S+]([O-])c1nc2cccccc-2n1` (centres unmarked) [Compound 53, 2(3,5-Dimethylisoxazole-4-yl)methylthio-cycloheptoimidazole-S-oxide], the inhibition at 300 µM in test [3] was 45%. Moreover, the inhibition in vivo at 50 mg/kg in test [1] was 95.7%. For `Nc1ccccc1CSc1nc2cccccc-2n1` [Compound 57, 2-(o-aminophenyl)methylthio-cycloheptoimidazol] the same measures were 46% and 92.9%.
